{"source": "paper PMC4682775", "about": "“A Novel Vasoactive Proline-Rich Oligopeptide from the Skin Secretion of the Frog Brachycephalus ephippium” (PLoS ONE, 2015)", "key": {"[1]": {"test_system": "rat aorta", "details": "cited from earlier work", "from_the_text": "[…]. NO is an important endothelium-derived vasodilator and is pivotal in several biological processes. The increase in NO production plays a pivotal role in the cardiovascular effects of BPPs."}, "[2]": {"test_system": "M1 muscarinic receptor and B2 bradykinin receptor", "details": "ref [15]; cited from earlier work"}, "[3]": {"details": "cited from earlier work"}, "[4]": {"test_system": "HEK293 cells", "details": "chemiluminescence assay, ref [15],[17]; cited from earlier work", "from_the_text": "It is essentially non-fluorescent until it reacts with NO to form a highly fluorescent benzotriazole. ..."}, "[5]": {"test_system": "M3 muscarinic receptors", "details": "ref [17]; cited from earlier work"}, "[6]": {"test_system": "HUVECs", "details": "10^−12 to 10^−5 M, 24 hours, MTT 4 hours, n = 3"}, "[7]": {"test_system": "VSMCs", "details": "rat aortic VSMCs; 10^−12 to 10^−5 M, 24 hours, MTT 4 hours, n = 3"}, "[8]": {"test_system": "rat thoracic aorta", "assay": "tissue or blood", "parameters": "species or system rat (male Wistar)", "method": "Male Wistar rats (250 ± 30 g) were maintained under controlled temperature (22 ± 1 ≡C), 12/12 h light/dark cycle, and had free access to water and food (Purina-Nestlé, São Paulo, SP, Brazil). Rat thoracic aortic rings were prepared according to Silva-Filho and colleagues. Briefly, aortic rings (3–4 mm) were maintained in Krebs solution (in mM: NaCl, 118.0; KCl, 4.6; CaCl2.2H2O, 2.5; MgSO4.7H2O, 5.7; NaHCO3, 25.0; KH2PO4.H2O, 1.1; and D-glucose, 11.0) under isometric tension of 1.0 g, 37°C and bubbled with 5% CO2 in 95% O2. […]. Time control contractions induced by PE, but without adding drug were obtained in parallel with other vascular segments.\nThe IC50 values for the ACE activity and the pD2 values for the vasodilator curves were obtained by non-linear regression. All values were expressed as means ± SEM, and significances for compared values were analyzed by Student’s “t” test or One-way ANOVA followed by Bonferroni’s post-test. All procedures were performed using Graph Pad Prism 5.02™ (Graph Pad Software, Inc., San Diego, CA, USA)."}, "[9]": {"target": "T1, ACE (Rattus norvegicus, UniProt P47820)", "T1 construct": "20 μL of enzyme-containing serum; from tissue; host or cells: fresh Wistar rat serum", "T1 sequence (P47820 36-1313)": "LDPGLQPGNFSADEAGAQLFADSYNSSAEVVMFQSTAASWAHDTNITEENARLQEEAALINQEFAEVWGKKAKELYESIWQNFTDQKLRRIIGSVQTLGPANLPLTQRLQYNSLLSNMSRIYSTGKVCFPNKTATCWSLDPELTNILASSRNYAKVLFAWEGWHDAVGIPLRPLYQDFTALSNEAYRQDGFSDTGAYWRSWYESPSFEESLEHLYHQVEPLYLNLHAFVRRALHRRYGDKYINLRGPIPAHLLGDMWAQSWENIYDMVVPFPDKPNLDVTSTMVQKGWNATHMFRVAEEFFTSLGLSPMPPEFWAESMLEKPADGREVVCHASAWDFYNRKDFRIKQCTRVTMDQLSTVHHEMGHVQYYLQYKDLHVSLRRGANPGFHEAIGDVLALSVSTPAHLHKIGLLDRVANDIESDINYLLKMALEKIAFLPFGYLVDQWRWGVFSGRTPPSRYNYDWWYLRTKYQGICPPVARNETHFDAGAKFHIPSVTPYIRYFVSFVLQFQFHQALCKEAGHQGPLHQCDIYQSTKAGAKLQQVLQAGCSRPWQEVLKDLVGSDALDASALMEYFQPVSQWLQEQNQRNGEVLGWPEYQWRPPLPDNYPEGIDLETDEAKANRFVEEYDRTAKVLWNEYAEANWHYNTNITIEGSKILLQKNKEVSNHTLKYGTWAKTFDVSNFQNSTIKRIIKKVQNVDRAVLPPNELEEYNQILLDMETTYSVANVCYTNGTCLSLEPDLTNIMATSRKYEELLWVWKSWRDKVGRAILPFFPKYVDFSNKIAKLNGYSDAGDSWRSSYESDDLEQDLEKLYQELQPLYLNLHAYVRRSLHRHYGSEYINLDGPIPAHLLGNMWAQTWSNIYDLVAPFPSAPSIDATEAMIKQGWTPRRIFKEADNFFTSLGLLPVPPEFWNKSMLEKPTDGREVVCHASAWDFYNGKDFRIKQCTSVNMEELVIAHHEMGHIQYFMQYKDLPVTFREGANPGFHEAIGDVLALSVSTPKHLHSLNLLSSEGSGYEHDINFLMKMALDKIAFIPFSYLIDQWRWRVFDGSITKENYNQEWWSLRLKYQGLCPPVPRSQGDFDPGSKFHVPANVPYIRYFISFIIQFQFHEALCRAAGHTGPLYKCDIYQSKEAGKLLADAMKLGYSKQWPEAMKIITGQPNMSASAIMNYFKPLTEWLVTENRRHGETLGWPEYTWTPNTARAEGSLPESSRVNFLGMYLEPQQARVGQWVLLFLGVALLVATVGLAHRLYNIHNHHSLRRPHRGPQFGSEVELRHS", "assay": "biochemical", "parameters": "species or system rat (Wistar rat serum)", "details": "rat serum ACE; 1.0 mM hippuryl-His-Leu-OH, 20 mM Tris-HCl pH 8.1, 0.3 M NaCl, 37°C, 30 min, duplicate; inhibitor 0.05 to 50 μM; non-linear regression; read-out: IC50, ACE inhibition", "procedure": "Fresh Wistar rat serum was used as source of ACE in these reactions, and the product H-His-Leu-OH was measured fluorimetrically following derivatization with o-phtaldialdehyde, as described [24, 25]. Reactions were carried out, in duplicate, at 37°C for 30 min in 200 μL of 20 mM Tris-HCl buffer, pH 8.1, 0.3 M NaCl, 1.0 mM H-hippuryl-His-Leu-OH, 20 μL of enzyme-containing serum and different inhibitor concentrations as described above."}, "[10]": {"test_system": "human hypertension", "details": "parenteral administration, in contrast to oral administration; ref [10]; cited from earlier work", "from_the_text": "The Bj-BPP-5a was the first BPP for which the amino acid sequence was described. Bj-BPP-5a is present in hydroalcoholic extracts of the snake venom Bothrops jararaca. […] Captopril was the fir ..."}, "[11]": {"test_system": "argininosuccinate syntethase enzyme (AsS)", "details": "followed by increased L-arginine levels and formation of NO; ref [14]; cited from earlier work"}}, "note": "Read-outs that look alike come from different tables or passages of the source. Non-standard residues stand in square brackets, D forms with d. No end group written: not given here. pGlu = O=C1CC[C@@H](C(=O)O)N1", "data": [{"compound": "<EKWAP [Bj-BPP-5a]", "values": [{"measurement": "vasodilatory effects", "setting": "[1]; in vitro and in vivo, ref [45] (TsHpt-I), [16] and [15] (Bj-BPP-5a)", "value": "vasodilatory effects"}, {"measurement": "endothelium-dependent relaxation", "setting": "[1]; rat aorta, ref [16],[45]", "value": "endothelium-dependent relaxations sensitive to eNOS inhibition"}, {"measurement": "receptors on which increment of NO production depends", "setting": "[2]", "value": "depends on M1 muscarinic receptor and B2 bradykinin receptor activation"}, {"measurement": "antihypertensive effect", "setting": "[3]; NO dependence, ref [16]", "value": "NO-dependent anti-hypertensive effect"}, {"measurement": "NO release", "setting": "[4]", "value": "increase NO release"}]}, {"compound": "<EGGWPRPGPEIPP ([pGlu]GGWPRPGPEIPP) [Bj-BPP-13a]", "values": [{"measurement": "receptors to which increase of NO production is related", "setting": "[5]", "value": "related to the M3 muscarinic receptors activation"}]}, {"compound": "WPPPKVSP-NH2 [BPP-BrachyNH2]", "values": [{"measurement": "cell viability / cytotoxicity", "setting": "[6]", "value": "No cytotoxic effects were observed"}, {"measurement": "cell viability / cytotoxicity", "setting": "[7]", "value": "No cytotoxic effects were observed"}, {"measurement": "reversibility / lethality to vascular cells", "setting": "[8]; after wash and 30 min stabilization, new PE contraction, data not shown", "value": "reversible and non-lethal to vascular cells"}, {"measurement": "IC50", "setting": "[9]", "value": 8.2, "unit": "µM"}]}, {"compound": "<EWPRPQIPP (N-terminal pyroglutamate) [Bj-BPP-9a]", "values": [{"measurement": "benefit in treatment of human hypertension", "setting": "[10]", "value": "showed benefits"}]}, {"compound": "<ENWPHPQIPP ([pGlu]NWPHPQIPP) [Bj-BPP-10c]", "values": [{"measurement": "argininosuccinate syntethase (AsS) activation", "setting": "[11]", "value": "activation of the argininosuccinate syntethase enzyme (AsS)"}, {"measurement": "antihypertensive effect", "setting": "[3]; result in words, ref [13]", "value": "ACE-independent antihypertensive effect"}]}, {"compound": "C[C@H](CS)C(=O)N1CCC[C@H]1C(=O)O", "note": "[captopril]", "values": [{"measurement": "Emax", "setting": "[8]; Rattus norvegicus, endothelium intact (E+), phenylephrine 3 × 10^−7 M, 10^−9–3 × 10^−5 M cumulative, Krebs 37°C, means ± SEM, n = 6, read-out: Emax (relaxation)", "value": "32.1 ± 4.2", "unit": "%"}, {"measurement": "vasodilatation (result in words)", "setting": "[8]; endothelium dependence", "value": "endothelium-dependent vasodilatation"}, {"measurement": "vasodilatation, captopril and BPP-BrachyNH2 compared", "setting": "[8]; result in words", "value": "equipotent and of the same magnitude"}]}]}
